Source: ChEMBL document CHEMBL4340517, “Synthesis and biological evaluation of 7-substituted cycloberberine derivatives as potent antibacterial agents against MRSA” (2019)

How the values were obtained:
Format in all cases: functional
Staphylococcus aureus [1] = test: Antibacterial activity against methicillin-sensitive Staphylococcus aureus ATCC 29213 after 18 hrs by agar dilution method; conditions: ATCC 29213, 18 h
Staphylococcus aureus [2] = test: Antibacterial activity against methicillin-resistant Staphylococcus aureus ATCC 33591 after 18 hrs by agar dilution method; conditions: ATCC 33591, 18 h
Staphylococcus aureus [3] = test: Antibacterial activity against VAN-intermediate Staphylococcus aureus ATCC 700698 after 18 hrs by agar dilution method; conditions: ATCC 700698, 18 h
[4] = tested on: Staphylococcus epidermidis; test: Antibacterial activity against methicillin-resistant Staphylococcus epidermidis 13-3 after 18 hrs by agar dilution method; conditions: 13-3, 18 h
Enterococcus faecalis [5] = test: Antibacterial activity against VAN-sensitive Enterococcus faecalis ATCC 29212 after 18 hrs by agar dilution method; conditions: ATCC 29212, 18 h
Enterococcus faecalis [6] = test: Antibacterial activity against VAN-resistant Enterococcus faecalis ATCC 51299 after 18 hrs by agar dilution method; conditions: ATCC 51299, 18 h
Enterococcus faecium = test: Antibacterial activity against VAN-resistant Enterococcus faecium ATCC 700221 after 18 hrs by agar dilution method; conditions: ATCC 700221, 18 h

Row | SMILES | MIC (Staphylococcus aureus [1]) [µg/mL] | MIC (Staphylococcus aureus [2]) [µg/mL] | MIC (Staphylococcus aureus [3]) [µg/mL] | MIC [4] [µg/mL] | MIC (Enterococcus faecalis [5]) [µg/mL] | MIC (Enterococcus faecalis [6]) [µg/mL] | MIC (Enterococcus faecium) [µg/mL]
1 | CCc1c2c(OC)c(OC)ccc2c2ccc3c4c(cc5c3c2[n+]1CC5)OCO4.[Br-] | 4 | 16 | 64 | 4 | 16 | 16 | 8
2 | COc1ccc2c(c1OC)c(-c1ccc(F)cc1)[n+]1c3c2ccc2c4c(cc(c23)CC1)OCO4.[Br-] | 8 | 8 | 16 | 4 | 16 | 16 | > 128
3 | C=Cc1c2c(OC)c(OC)ccc2c2ccc3c4c(cc5c3c2[n+]1CC5)OCO4.[Br-] | 4 | 8 | 8 | 2 | 4 | 4 | 4
4 | CCOc1c(OC)ccc2c1c(-c1ccccc1)[n+]1c3c2ccc2c4c(cc(c23)CC1)OCO4.[Br-] | 1 | 8 | 32 | 1 | 4 | 4 | 2
5 | CCc1cc2c3ccc(OC)c(OC)c3c(-c3ccccc3)[n+]3c2c2c(cc4c(c12)OCO4)CC3.[Br-] | 1 | 8 | 32 | 1 | 4 | 4 | 1
6 | C=CCc1c2c(OC)c(OC)ccc2c2ccc3c4c(cc5c3c2[n+]1CC5)OCO4.[Br-] | 16 | 16 | 16 | 8 | 16 | 16 | 16
7 | COc1cc2c3c(ccc4c5ccc(OC)c(OC)c5c(-c5ccc(Cl)cc5)[n+](c43)CC2)c1OC.[Br-] | 2 | 8 | 16 | 2 | 16 | 8 | > 128
8 | CCc1cc2c3ccc(OC)c(OC)c3c(-c3ccc(Cl)cc3)[n+]3c2c2c(cc4c(c12)OCO4)CC3.[Br-] | 1 | 2 | 32 | 1 | 4 | 4 | 1
9 | COc1ccc2c(c1OC)c(CC(C)C)[n+]1c3c2ccc2c4c(cc(c23)CC1)OCO4.[Br-] | 4 | 16 | 16 | 4 | 16 | 16 | 16
10 | COc1cc2c3c(ccc4c5ccc(OC)c(OC)c5c(-c5ccc6c(c5)OCO6)[n+](c43)CC2)c1OC.[Br-] | 4 | 8 | 32 | 2 | 32 | 32 | > 128
11 | COc1cc2c3c(ccc4c5ccc(OC)c(OC)c5c(-c5ccccc5)[n+](c43)CC2)c1OC.[Br-] | 4 | 16 | 32 | 4 | 32 | 32 | > 128
12 | CCCCc1cc2c3ccc(OC)c(OC)c3c(-c3ccccc3)[n+]3c2c2c(cc4c(c12)OCO4)CC3.[Br-] | 1 | 2 | 32 | 1 | 2 | 4 | 1
13 | CCCc1cc2c3ccc(OC)c(OC)c3c(-c3ccccc3)[n+]3c2c2c(cc4c(c12)OCO4)CC3.[Br-] | 2 | 2 | 32 | 2 | 8 | 16 | > 128
